Holding throughout (format): in vivo
The subject of data set [1] is Wistar albino mice. Briefly: Analgesic activity, tail-flick technique. The note with it: mean ± SD (n = 6). As to the method:
(§1) The synthesized compounds were evaluated for analgesic, anti-inflammatory, and ulcerogenic index. […] The test compounds and the standard drugs were administered in the form of a suspension (1% carboxymethyl cellulose as a vehicle) by oral route for analgesic and anti-inflammatory but for ulcerogenicity studies by intraperitoneally as suspension in 10% v/v Tween-20. Each group consisted of six animals. The animals were procured from the C. L. Baid Metha College of pharmacy, Chennai, and were maintained in colony cages at 25 ±2°C, relative humidity of 45-55%, under a 12-h light and dark cycle; they were fed standard animal feed. All the animals were acclimatized for a week before use. The Institutional Animal Ethics Committee approved the protocol adopted for the experimentation of animals.
The analgesic activity was performed by tail-flick technique using Wistar albino mice (25-35 g) of either sex selected by the random sampling technique.[1314] Diclofenac sodium at a dose level of 10 mg/kg and 20 mg/kg was administered orally as reference drug for comparison. The test compounds at two dose levels (10, 20 mg/kg) were administered orally. The reaction time was recorded at 30 min, 1, 2, and 3 h after the treatment, and cut-off time was 10 s. The percent analgesic activity (PAA) was calculated by the following formula, where T1 is the reaction time (s) before treatment, and T2 is the reaction time (s) after treatment.

Data set [2] has as its system Albino rats of Wistar strain. The data set can be described thus: Evaluation of ulcerogenicity index (pylorus ligation). The note with it: diclofenac reference, dose not given, mean ± SD (n = 6). The arrangement: scale not given here. The protocol: The synthesized compounds were evaluated for analgesic, anti-inflammatory, and ulcerogenic index. […] The test compounds and the standard drugs were administered in the form of a suspension (1% carboxymethyl cellulose as a vehicle) by oral route for analgesic and anti-inflammatory but for ulcerogenicity studies by intraperitoneally as suspension in 10% v/v Tween-20. Each group consisted of six animals. The animals were procured from the C. L. Baid Metha College of pharmacy, Chennai, and were maintained in colony cages at 25 ±2°C, relative humidity of 45-55%, under a 12-h light and dark cycle; they were fed standard animal feed. All the animals were acclimatized for a week before use. The Institutional Animal Ethics Committee approved the protocol adopted for the experimentation of animals. Ulceration in rats was induced as described by Goyal et al. Albino rats of Wistar strain weighing 150-200 g of either sex were divided into various groups each of six animals.[16] Control group of animals was administered only with 10% v/v Tween 80 suspension intraperitonially. One group was administered with aspirin (German Remedies) intraperitoneally at a dose of 200 mg/kg once daily for 3 days. The remaining group of animals was administered with test compounds intraperitoneally at a dose of 20 mg/kg. On fourth day, Pylorus was ligated as per the method of Shay et al.[17] Animals were fasted for 36 h before the pylorus ligation procedure. Four hours after the ligation, animals were sacrificed. The stomach was removed and opened along with the greater curvature. Ulcer index was determined by the method of Ganguly and Bhatnagar.[18]

Data set [3] deals with carrageenan-induced paw edema in rats. Briefly: Anti-inflammatory activity, carrageenan-induced paw edema test. Particulars: mean ± SD (n = 6). The protocol:
as §1
Anti-inflammatory activity was evaluated by carrageenan-induced paw edema test in rats.[15] Diclofenac sodium 10, 20 mg/kg was administered as a standard drug for comparison. The test compounds were administered at two dose levels (10 mg/kg, 20 mg/kg). The paw volumes were measured using the mercury displacement technique with the help of a plethysmograph (Model PLYAN; Buxco, USA) immediately before and 30 min, 1, 2, and 3 h after carrageenan injection. The percent inhibition of paw edema was calculated using the following formula.
Percent inhibition I = 100 1− (a−x) / (b−y)
Where x is the mean paw volume of rats before the administration of carrageenan and test compounds or reference compound (test group), a is the mean paw volume of rats after the administration of carrageenan in the test group (drug treated), b is the mean paw volume of rats after the administration of carrageenan in the control group, y is the mean paw volume of rats before the administration of carrageenan in the control group.
A general note: Carrageenan injected into the paw causes an acute inflammation.

For the compound `O=C(O)Cc1ccccc1Nc1c(Cl)cccc1Cl` [Diclofenac, Diclofenac sodium, reference compound], the Percent analgesic activity is 37 ± 1.69 % in data set [1] (10 mg/kg oral, 30 min after treatment); 43 ± 1.42 % in data set [1] (10 mg/kg oral, 1 h after treatment); 45 ± 0.92 % in data set [1] (10 mg/kg oral, 2 h after treatment); 33 ± 0.96 % in data set [1] (10 mg/kg oral, 3 h after treatment); 46 ± 0.95 % in data set [1] (20 mg/kg oral, 30 min after treatment); 55 ± 1.16 % in data set [1] (20 mg/kg oral, 1 h after treatment). Further, the Percent analgesic activity is 62 ± 1.49 % in data set [1] (20 mg/kg oral, 2 h after treatment) and 39 ± 1.13 % in data set [1] (20 mg/kg oral, 3 h after treatment). The compound also gave a Ulcer index in data set [2] of 1.65 ± 0.48. Further, the “Percent anti-inflammatory activity (percent inhibition of paw edema)” value turned out to be 32 ± 0.69 % in data set [3] (10 mg/kg oral, 30 min after carrageenan); 38 ± 1.42 % in data set [3] (10 mg/kg oral, 1 h after carrageenan); 39 ± 1.97 % in data set [3] (10 mg/kg oral, 2 h after carrageenan); 33 ± 0.93 % in data set [3] (10 mg/kg oral, 3 h after carrageenan); 45 ± 1.65 % in data set [3] (20 mg/kg oral, 30 min after carrageenan); 52 ± 0.96 % in data set [3] (20 mg/kg oral, 1 h after carrageenan). The “Percent anti-inflammatory activity (percent inhibition of paw edema)” value is listed as 60 ± 1.52 % in data set [3] (20 mg/kg oral, 2 h after carrageenan) and 39 ± 1.13 % in data set [3] (20 mg/kg oral, 3 h after carrageenan).
